Tests used:
B16 mouse melanoma cells = assay: Anti-tumor activity against B16 mouse melanoma inoculated subcutaneously; type: in vivo; conditions: Mus musculus, iv, 480 h; maximum tumor growth inhibition rate during the test period of 20 days; female BDF1 mice; 0.1 mg/kg intravenously on days 1, 5 and 9 after s.c. inoculation; read-out: TGIR (%)
Experimental: Anti-tumor activity against B16 mouse melanoma inoculated subcutaneously.
Experiment was carried out with the groups of 6 female BDF1 mice (6 weeks old) purchased from Japan SLC Inc., B16 mouse melanoma cells (1 × 10^6 cells/mouse) were inoculated subcutaneously in the rear region of mice, and the sample prepared in a concentration of 0.1 mg/kg was administered intravenously at a dose of 0.2 ml/20g/mouse after 1, 5 and 9 days from inoculation (the day of inoculation being set as 0 day). The volume of the tumor at the hypodermis of the rear region [(longer diameter × shorter diameter × height)/2] was measured on 8, 12, 16 and 20 days after inoculation, and the tumor growth inhibition rate (TGIR) of each sample was determined. TGIR was calculated from the following equation: TGIR (%) = (1 - T/C) × 100 [formula] wherein C represents a tumor volume of the control group and T represents a tumor volume of the group to which the sample was administered.
In this connection, respective test runs were divided by broken lines.

[1] = tested on: spleen cells of C57BL/6 mouse and pancreatic cells of BALB/c mouse; assay: Lymphocyte mixed culture reaction (mouse MLR), uptake of 3H-TdR; type: cell-based; conditions: Mus musculus, Lymphocyte, 50 h, cultured for 42 hours, then 8 hours with 3H-TdR, read-out: Uptake of ^3H-TdR (% of control); for activity at 1 µg/mL: sample concentration 10^0 µg/ml; for activity at 0.1 µg/mL: sample concentration 10^-1 µg/ml; for activity at 0.01 µg/mL: sample concentration 10^-2 µg/ml
Experimental: Experiment was carried out with the spleen cells of C57BL/6 mouse which had been treated with mitomycin C (50 µg/ml, 30 min) as the stimulator and with the […] cells of BALB/c mouse as the responder. These […] cells were suspended to a concentration of 2 × 10^6 cells/ml with a culture medium of 10% FCS RPMI 1640, respectively. These cells (50 µl/well) and a sample (10 µl/well) were plated in a 96 well round-bottomed plate and cultured for 42 hours* under the condition of 37°C and 5% CO2. ^3H-thymidine (^3H-TdR) was added in a dose of 0.5 µCi/well. After 8 hours, the cells were harvested and subjected to the measurement of the uptake of ^3H-TdR by a liquid scintillation counter.
*The samples of the compounds 32, 33 and 34 were cultured for 4 days.

Compound | inhibition in vivo at 0.1 mg/kg (B16 mouse melanoma cells) [%] | activity at 1 µg/mL [1] [%] | activity at 0.1 µg/mL [1] [%] | activity at 0.01 µg/mL [1] [%]
CCCCCCCCCCCCCCCCCCCCCCCC(=O)N[C@@H](CO[C@H]1O[C@H](CO)[C@H](O)[C@H](O)[C@H]1O)[C@H](O)CCCCCCCCCCCCCCC [Compound 1, (2S,3R)-1-(α-D-galactopyranosyloxy)-2-tetracosanoylamino-3-octadecanol] | 91.4 | 359 | 151 | 136
CCCCCCCCCCCCCCCCCCCCCC(=O)N[C@@H](CO[C@H]1O[C@H](CO)[C@H](O)[C@H](O)[C@H]1O)[C@H](O)CCCCCCCCCCCCCCC [Compound 2, (2S,3R)-2-docosanoylamino-1-(α-D-galactopyranosyloxy)-3-octadecanol] | 53.1 | 329 | 115 | 103
CCCCCCCCCCCCCCCCCCCC(=O)N[C@@H](CO[C@H]1O[C@H](CO)[C@H](O)[C@H](O)[C@H]1O)[C@H](O)CCCCCCCCCCCCCCC [Compound 3, (2S,3R)-1-(α-D-galactopyranosyloxy)-2-icosanoylamino-3-octadecanol] | 56.9 | 254 | 117 | 110
CCCCCCCCCCCCCCCCCC(=O)N[C@@H](CO[C@H]1O[C@H](CO)[C@H](O)[C@H](O)[C@H]1O)[C@H](O)CCCCCCCCCCCCCCC [Compound 4, (2S,3R)-1-(α-D-galactopyranosyloxy)-2-octadecanoylamino-3-octadecanol] | 78.1 | 269 | 158 | 134
CCCCCCCCCCCCCCC[C@@H](O)[C@H](CO[C@H]1O[C@H](CO)[C@H](O)[C@H](O)[C@H]1O)NC(=O)CCCCCCCCC [Compound 6, (2S,3R)-2-decanoylamino-1-(α-D-galactopyranosyloxy)-3-octadecanol] | 73.7 | 498 | 190 | 187
CCCCCCCCCCCCCCC[C@@H](O)[C@H](CO[C@H]1O[C@H](CO)[C@H](O)[C@H](O)[C@H]1O)NC(=O)CCCCCCC [Compound 7, (2S,3R)-1-(α-D-galactopyranosyloxy)-2-octanoylamino-3-octadecanol] | 18.5 | 853 | 576 | 207
CCCCCCCCCCCCCCC[C@@H](O)[C@H](CO[C@H]1O[C@H](CO)[C@H](O)[C@H](O)[C@H]1O)NC(C)=O [Compound 8, (2S,3R)-2-acetamino-1-(α-D-galactopyranosyloxy)-3-octadecanol] | 22.1 | 297 | 189 | 96
CCCCCCCCCCCCCCCCCCCCCCCC(=O)N[C@@H](CO[C@H]1O[C@H](CO)[C@H](O)[C@H](O)[C@H]1O)[C@H](O)CCCCCCCCCCC [Compound 9, (2S,3R)-1-(α-D-galactopyranosyloxy)-2-tetracosanoylamino-3-tetradecanol] | 71.5 | 460 | 193 | 176
CCCCCCCCCCCCCC(=O)N[C@@H](CO[C@H]1O[C@H](CO)[C@H](O)[C@H](O)[C@H]1O)[C@H](O)CCCCCCCCCCCCC [Compound 10, (2S,3R)-1-(α-D-galactopyranosyloxy)-2-tetradecanoylamino-3-hexadecanol] | 76.5 | 610 | 381 | 157
CCCCCCCCCCCCCC(=O)N[C@H](CO[C@H]1O[C@H](CO)[C@H](O)[C@H](O)[C@H]1O)[C@@H](O)CCCCCCCCCCCCC [Compound 11, (2R,3S)-1-(α-D-galactopyranosyloxy)-2-tetradecanoylamino-3-hexadecanol] | 55.9 | 128 | 105 | 95
CCCCCCCCCCCCCC(=O)N[C@@H](CO[C@H]1O[C@H](CO)[C@H](O)[C@H](O)[C@H]1O)[C@@H](O)CCCCCCCCCCCCC [Compound 12, (2S,3S)-1-(α-D-galactopyranosyloxy)-2-tetradecanoylamino-3-hexadecanol] | 41.8 | 123 | 99 | 104
CCCCCCCCCCCCCC(=O)N[C@H](CO[C@H]1O[C@H](CO)[C@H](O)[C@H](O)[C@H]1O)[C@H](O)CCCCCCCCCCCCC [Compound 13, (2R,3R)-1-(α-D-galactopyranosyloxy)-2-tetradecanoylamino-3-hexadecanol] | 28.2 | 139 | 106 | 107
CCCCCCCCCCCCCCCCCCCCCC[C@@H](O)C(=O)N[C@@H](CO[C@H]1O[C@H](CO)[C@H](O)[C@H](O)[C@H]1O)[C@H](O)CCCCCCCCCCCCCCC [Compound 14, (2S,3R)-1-(α-D-galactopyranosyloxy)-2-[(R)-2-hydroxytetracosanoylamino]-3-octadecanol] | 84 | 289 | 197 | 139
CCCCCCCCCCCCC/C=C/[C@@H](O)[C@H](CO[C@H]1O[C@H](CO)[C@H](O)[C@H](O)[C@H]1O)NC(=O)CCCCCCCCCCCCCCCCC [Compound 15, (2S,3R,4E)-1-(α-D-galactopyranosyloxy)-2-octadecanoylamino-4-octadecen-3-ol] | 61.9 | 360 | 165 | 144
CCCCCCCCCCCCCCCCCCCCCCCC(=O)N[C@@H](CO[C@H]1O[C@H](CO)[C@H](O)[C@H](O)[C@H]1O)[C@H](O)[C@H](O)CCCCCCCCCCCCCC [Compound 16, (2S,3S,4R)-1-(α-D-galactopyranosyloxy)-2-tetracosanoylamino-3,4-octadecanediol] | 65 | 321 | 176 | 160
CCCCCCCCCCCCCCCCCCCCCCCC(=O)N[C@@H](CO[C@H]1O[C@H](CO)[C@H](O)[C@H](O)[C@H]1O)[C@H](O)[C@H](O)CCCCCCCCCCCCC [Compound 17, (2S,3S,4R)-1-(α-D-galactopyranosyloxy)-2-tetracosanoylamino-3,4-heptadecanediol] | 58 | 410 | 190 | 143
CCCCCCCCCCCCCCCCCCCCCCCC(=O)N[C@@H](CO[C@H]1O[C@H](CO)[C@H](O)[C@H](O)[C@H]1O)[C@H](O)[C@H](O)CCCCCCCCCCC [Compound 18, (2S,3S,4R)-1-(α-D-galactopyranosyloxy)-2-tetracosanoylamino-3,4-pentadecanediol] | 66.3 | 482 | 176 | 138
CCCCCCCCCCCCCCCCCCCCCCCC(=O)N[C@@H](CO[C@H]1O[C@H](CO)[C@H](O)[C@H](O)[C@H]1O)[C@H](O)[C@H](O)CCCCCCC [Compound 19, (2S,3S,4R)-1-(α-D-galactopyranosyloxy)-2-tetracosanoylamino-3,4-undecanediol] | 80.2 | 345 | 188 | 144
CCCCCCCCCCCCCCCCCCCCCCCCCC(=O)N[C@@H](CO[C@H]1O[C@H](CO)[C@H](O)[C@H](O)[C@H]1O)[C@H](O)[C@H](O)CCCCCCCCCCCCC [Compound 20, (2S,3S,4R)-1-(α-D-galactopyranosyloxy)-2-hexacosanoylamino-3,4-heptadecanediol] | 73.7 | 443 | 188 | 192
CCCCCCCCCCCCCCCCCCCCCC[C@@H](O)C(=O)N[C@@H](CO[C@H]1O[C@H](CO)[C@H](O)[C@H](O)[C@H]1O)[C@H](O)[C@H](O)CCCCCCCCCCCCCC [Compound 21, (2S,3S,4R)-1-(α-D-galactopyranosyloxy)-2-[(R)-2-hydroxytetracosanoylamino]-3,4-octadecanediol] | 57.9 | 304 | 149 | 142
